Data taken from article PMC8232238 (Cells, 2021).
Values joined by “and” are separate entries in the source; they are usually repeats but may differ in a detail not shown here. Identical values can stand only once. Like-named read-outs stand apart in the source and are kept apart here.

Assays:
[1] = molecular target: T1, HDAC8 (Homo sapiens, UniProt Q9BY41); assay: HDAC8 enzyme inhibition assay (single point and 10-dose IC50, Reaction Biology); assay type: biochemical; settings: for IC50: average of two independent measurements; for Selectivity factor (SF) HDAC8 against HDAC6: selectivity for HDAC6 over HDAC8
T1 construct: purchased Reaction Biology corporation (contract assay)
T1 sequence (Q9BY41 1-377): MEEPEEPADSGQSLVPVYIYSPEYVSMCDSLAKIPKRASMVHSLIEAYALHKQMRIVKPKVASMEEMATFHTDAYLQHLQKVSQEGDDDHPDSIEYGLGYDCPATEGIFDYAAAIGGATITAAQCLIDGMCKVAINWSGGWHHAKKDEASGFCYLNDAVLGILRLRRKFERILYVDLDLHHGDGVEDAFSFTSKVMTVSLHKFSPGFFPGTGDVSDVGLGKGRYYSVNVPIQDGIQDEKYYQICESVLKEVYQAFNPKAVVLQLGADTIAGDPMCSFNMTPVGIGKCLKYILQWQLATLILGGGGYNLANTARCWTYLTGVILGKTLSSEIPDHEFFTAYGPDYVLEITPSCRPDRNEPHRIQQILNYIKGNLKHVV
Protocol: (§1) Against HDAC6, inhibition was determined using 0.01 µM of the inhibitor.
(§2) All IC50 measurements we performed by Reaction Biology corporation. Compounds were tested in
(§3) dilution starting at 1 uM. […]
(§4) (RHK(Ac)K(Ac)AMC). IC50 values were calculated using the GraphPad Prism 4 program based on a
(§5) sigmoidal dose-response equation. […]

[2] = UV/Vis absorption and fluorescence (photophysical properties) in DMSO; assay type: physicochemical; settings: for λem: excitation at 340 nm; for Φf (fluorescence quantum yield): relative to quinine sulfate, average of two samples
Protocol: S1.6 UV/Vis and Fluorescence Data
UV/Vis analysis was performed on a Cary Eclipse 300 UV/Vis spectrophotometer and fluorescence measurements performed on a Cary Eclipse Fluorescence spectrophotometer. All analysis was performed in 10 mm quartz cuvettes using AR grade DMSO. Relative quantum yields were obtained by comparison to quinine sulfate (фf = 0.58 in 0.1 M H2SO4) with absorbance of samples adjusted so that the absorbance at 340 nm was similar to the reference.
Emission spectra were obtained by excitation at 340 nm. Quantum yield was obtained by use of the following equation and are reported as the average of two samples with error <5%; […]
Where фref is the literature quantum yield of the reference, η is the refractive index of the solvent (H2O = 1.333, DMSO = 1.479) and Is is the integrated fluorescence intensity of the sample with Iref being the same of the reference.
Table S1 – Photophysical properties of selected compounds in DMSO […]
†Average of two samples, ±1%

[3] = molecular target: T2, HDAC6 (Homo sapiens, UniProt Q9UBN7); assay: HDAC6 enzyme inhibition assay (single point and 10-dose IC50, Reaction Biology); assay type: biochemical; settings: for IC50: average of two independent measurements; for HDAC6 average enzyme isoform activity (percentage of full enzyme activity): single point, inhibitor 0.01 μM, average of two measurements, ±2%
T2 construct: purchased Reaction Biology corporation (contract assay)
T2 sequence (Q9UBN7 1-1215): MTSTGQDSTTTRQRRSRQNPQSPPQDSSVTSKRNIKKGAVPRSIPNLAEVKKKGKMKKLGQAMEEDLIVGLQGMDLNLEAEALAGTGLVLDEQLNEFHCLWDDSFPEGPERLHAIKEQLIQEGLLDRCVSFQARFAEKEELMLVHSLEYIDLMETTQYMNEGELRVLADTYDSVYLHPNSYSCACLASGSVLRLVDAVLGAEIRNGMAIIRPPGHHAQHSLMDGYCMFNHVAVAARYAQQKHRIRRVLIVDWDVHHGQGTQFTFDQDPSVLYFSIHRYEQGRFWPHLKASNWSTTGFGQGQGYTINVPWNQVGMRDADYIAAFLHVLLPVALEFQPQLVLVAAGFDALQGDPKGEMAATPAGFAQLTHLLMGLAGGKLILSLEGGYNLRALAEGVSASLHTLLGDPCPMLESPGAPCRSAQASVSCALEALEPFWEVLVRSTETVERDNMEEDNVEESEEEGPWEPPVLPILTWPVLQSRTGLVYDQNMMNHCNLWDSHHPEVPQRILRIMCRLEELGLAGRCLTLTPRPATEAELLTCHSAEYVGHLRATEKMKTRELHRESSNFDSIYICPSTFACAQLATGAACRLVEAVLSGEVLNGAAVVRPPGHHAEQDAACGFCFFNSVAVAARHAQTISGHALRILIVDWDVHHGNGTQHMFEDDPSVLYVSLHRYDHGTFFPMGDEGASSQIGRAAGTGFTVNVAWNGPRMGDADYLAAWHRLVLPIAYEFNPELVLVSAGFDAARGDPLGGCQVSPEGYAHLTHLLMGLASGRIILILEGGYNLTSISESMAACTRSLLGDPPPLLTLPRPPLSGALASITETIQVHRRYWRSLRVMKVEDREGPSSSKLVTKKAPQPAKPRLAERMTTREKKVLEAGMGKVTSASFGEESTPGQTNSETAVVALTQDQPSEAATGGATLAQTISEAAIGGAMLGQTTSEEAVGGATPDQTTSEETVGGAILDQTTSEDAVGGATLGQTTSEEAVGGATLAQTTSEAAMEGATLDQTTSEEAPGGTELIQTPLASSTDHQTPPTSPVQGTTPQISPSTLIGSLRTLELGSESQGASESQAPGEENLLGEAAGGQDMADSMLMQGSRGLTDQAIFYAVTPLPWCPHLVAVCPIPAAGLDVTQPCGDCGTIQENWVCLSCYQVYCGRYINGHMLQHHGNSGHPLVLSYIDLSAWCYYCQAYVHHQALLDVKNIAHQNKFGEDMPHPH
Protocol: as §1, §2, §3, §4, §5

[4] = molecular target: T3, HDAC3 (Homo sapiens, UniProt O15379); assay: HDAC3 enzyme inhibition assay (single point and 10-dose IC50, Reaction Biology); assay type: biochemical; settings: for IC50: average of two independent measurements; for HDAC3 average enzyme isoform activity (percentage of full enzyme activity): single point, inhibitor 1.0 μM, average of two measurements, ±2%
T3 construct: purchased Reaction Biology corporation (contract assay)
T3 sequence (O15379 whole entry, canonical isoform): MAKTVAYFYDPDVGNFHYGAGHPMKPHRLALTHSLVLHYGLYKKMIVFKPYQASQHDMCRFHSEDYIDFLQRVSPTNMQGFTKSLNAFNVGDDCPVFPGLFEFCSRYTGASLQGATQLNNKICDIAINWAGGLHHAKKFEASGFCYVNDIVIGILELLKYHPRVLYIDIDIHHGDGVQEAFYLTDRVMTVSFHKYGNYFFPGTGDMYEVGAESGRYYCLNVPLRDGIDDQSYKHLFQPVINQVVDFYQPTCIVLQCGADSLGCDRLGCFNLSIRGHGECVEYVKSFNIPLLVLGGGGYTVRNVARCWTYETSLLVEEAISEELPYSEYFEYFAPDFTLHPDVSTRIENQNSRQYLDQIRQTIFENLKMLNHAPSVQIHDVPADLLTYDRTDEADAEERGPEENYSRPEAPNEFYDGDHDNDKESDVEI
T3 sequence (Q9Y618 395-489 partner limits assumed): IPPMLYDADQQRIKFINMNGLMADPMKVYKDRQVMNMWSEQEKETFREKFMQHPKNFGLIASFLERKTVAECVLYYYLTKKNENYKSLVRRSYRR
Protocol: as §2, §3, §4, §5

[5] = molecular target: T4, HDAC1 (Homo sapiens, UniProt Q13547); assay: HDAC1 enzyme inhibition assay (single point and 10-dose IC50, Reaction Biology); assay type: biochemical; settings: for IC50: average of two independent measurements; for Selectivity factor (SF) = HDAC1 IC50/HDAC6 IC50: selectivity for HDAC6 over HDAC1; for HDAC1 average enzyme isoform activity (percentage of full enzyme activity): single point, inhibitor 1.0 μM, average of two measurements, ±2%
T4 construct: purchased Reaction Biology corporation (contract assay)
T4 sequence (Q13547 whole entry, canonical isoform): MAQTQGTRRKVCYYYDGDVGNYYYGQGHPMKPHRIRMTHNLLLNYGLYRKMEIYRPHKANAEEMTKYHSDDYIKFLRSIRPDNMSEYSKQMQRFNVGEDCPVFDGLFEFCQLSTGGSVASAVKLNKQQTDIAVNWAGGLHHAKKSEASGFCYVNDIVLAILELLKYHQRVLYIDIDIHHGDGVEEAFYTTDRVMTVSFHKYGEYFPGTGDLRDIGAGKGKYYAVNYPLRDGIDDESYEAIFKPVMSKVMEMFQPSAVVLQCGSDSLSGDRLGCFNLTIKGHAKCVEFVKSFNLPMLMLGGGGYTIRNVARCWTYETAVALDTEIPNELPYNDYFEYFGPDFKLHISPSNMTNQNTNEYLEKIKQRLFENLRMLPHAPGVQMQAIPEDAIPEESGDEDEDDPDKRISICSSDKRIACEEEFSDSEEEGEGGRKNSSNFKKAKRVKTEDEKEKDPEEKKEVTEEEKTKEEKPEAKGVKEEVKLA
Protocol: as §2, §3, §4, §5

[6] = molecular target: T5, HDAC11 (Homo sapiens, UniProt Q96DB2); assay: HDAC11 enzyme inhibition assay (single point and 10-dose IC50, Reaction Biology); assay type: biochemical; settings: for IC50: average of two independent measurements; for Selectivity factor (SF) HDAC11 against HDAC6: selectivity for HDAC6 over HDAC11; for HDAC11 average enzyme isoform activity (percentage of full enzyme activity): single point, inhibitor 1.0 μM, average of two measurements, ±2%
T5 construct: purchased Reaction Biology corporation (contract assay)
T5 sequence (Q96DB2 1-347): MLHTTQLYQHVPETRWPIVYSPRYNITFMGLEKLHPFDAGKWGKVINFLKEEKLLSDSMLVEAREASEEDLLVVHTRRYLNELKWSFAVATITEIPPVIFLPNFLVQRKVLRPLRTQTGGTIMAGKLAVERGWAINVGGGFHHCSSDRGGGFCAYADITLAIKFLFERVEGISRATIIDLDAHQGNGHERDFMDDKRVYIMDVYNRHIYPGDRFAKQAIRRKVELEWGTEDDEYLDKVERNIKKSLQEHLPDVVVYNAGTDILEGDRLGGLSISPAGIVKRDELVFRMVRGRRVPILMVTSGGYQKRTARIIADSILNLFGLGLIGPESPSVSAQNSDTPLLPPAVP
Protocol: as §1
All IC50 measurements we performed by Reaction Biology corporation. Compounds were tested in […]
dilution starting at 1 uM.
Substrate for HDAC11: 50 uM Fluorogenic HDAC Class2a Substrate […]
(Trifluoroacetyl Lysine).
(RHK(Ac)K(Ac)AMC). IC50 values were calculated using the GraphPad Prism 4 program based on a sigmoidal dose-response equation. […]

[7] = single point, inhibitor 1.0 μM, average of two measurements, ±2%

| Compound | HDAC8 average enzyme isoform activity (percentage of full enzyme activity) [1] | λabs (absorption maximum) [2] | λabs (secondary absorption maximum) [2] | λem [2] | Φf (fluorescence quantum yield) [2] | IC50 [3] | HDAC6 average enzyme isoform activity (percentage of full enzyme activity) [3] | IC50 [4] | Selectivity factor (SF) HDAC3 against HDAC6 ([4]; selectivity for HDAC6 over HDAC3) | HDAC3 average enzyme isoform activity (percentage of full enzyme activity) [4] | IC50 [5] | Selectivity factor (SF) = HDAC1 IC50/HDAC6 IC50 [5] | HDAC1 average enzyme isoform activity (percentage of full enzyme activity) [5] | IC50 [6] | Selectivity factor (SF) HDAC11 against HDAC6 [6] | HDAC11 average enzyme isoform activity (percentage of full enzyme activity) [6] | IC50 [1] | Selectivity factor (SF) HDAC8 against HDAC6 [1] | HDAC8 average enzyme isoform activity (percentage of full enzyme activity) [1, 7] |
| --- | --- | --- | --- | --- | --- | --- | --- | --- | --- | --- | --- | --- | --- | --- | --- | --- | --- | --- | --- |
| O=C(CCCCCN1C(=O)c2cccc3cccc(c23)C1=O)NO [scriptaid, reference compound] | 60.3% | – | – | – | – | – | – | – | – | – | – | – | – | – | – | – | – | – | – |
| CCC(=O)Nc1cc2c3c(cccc3c1)C(=O)N(CCOC)C2=O [Compound 7] | – | 341 nm | 383 nm | 439 nm | 0.04 | – | – | – | – | – | – | – | – | – | – | – | – | – | – |
| COCCN1C(=O)c2cccc3cc(N4CCCC4=O)cc(c23)C1=O [Compound 8] | – | 343 nm | 383 nm | 441 nm | 0.02 | – | – | – | – | – | – | – | – | – | – | – | – | – | – |
| COCCN1C(=O)c2cccc3cc(NC(=O)c4ccccc4)cc(c23)C1=O [Compound 6] | – | 344 nm | 385 nm | 435 nm | 0.02 | – | – | – | – | – | – | – | – | – | – | – | – | – | – |
| COCCN1C(=O)c2cccc3cc(NC(=O)OC(C)(C)C)cc(c23)C1=O [Compound 9] | – | 345 nm | 367 nm | 442 nm | 0.06 | – | – | – | – | – | – | – | – | – | – | – | – | – | – |

The next lines start with the values.

| HDAC8 average enzyme isoform activity (percentage of full enzyme activity) [1] | λabs (absorption maximum) [2] | λabs (secondary absorption maximum) [2] | λem [2] | Φf (fluorescence quantum yield) [2] | IC50 [3] | HDAC6 average enzyme isoform activity (percentage of full enzyme activity) [3] | IC50 [4] | Selectivity factor (SF) HDAC3 against HDAC6 ([4]; selectivity for HDAC6 over HDAC3) | HDAC3 average enzyme isoform activity (percentage of full enzyme activity) [4] | IC50 [5] | Selectivity factor (SF) = HDAC1 IC50/HDAC6 IC50 [5] | HDAC1 average enzyme isoform activity (percentage of full enzyme activity) [5] | IC50 [6] | Selectivity factor (SF) HDAC11 against HDAC6 [6] | HDAC11 average enzyme isoform activity (percentage of full enzyme activity) [6] | IC50 [1] | Selectivity factor (SF) HDAC8 against HDAC6 [1] | HDAC8 average enzyme isoform activity (percentage of full enzyme activity) [1, 7] | Compound |
| --- | --- | --- | --- | --- | --- | --- | --- | --- | --- | --- | --- | --- | --- | --- | --- | --- | --- | --- | --- |
| – | 343 nm | 386 nm and 374 nm | 437 nm | 0.05 | 0.58 ± 0.002 nM | 19.7% | 27 ± 3 nM | 47 | 17.2% | 87 ± 7 nM | 150 | 38.7% | 240 ± 11 nM | 413 | 58.7% | 4330 ± 390 nM | 7466 | 93.4% | COc1ccc(C(=O)Nc2cc3c4c(cccc4c2)C(=O)N(CCCCCC(=O)NO)C3=O)cc1 [KNH020] |
| – | 341 nm | 383 nm | 435 nm | 0.04 | 0.97 ± 0.05 nM | 20.3% | 32 ± 1 nM | – | 20.1% | 37 ± 2 nM | 38 | 29.8% | 2160 ± 140 nM | 2234 | 90.7% | 950 ± 50 nM | 981 | 50.4% | CCC(=O)Nc1cc2c3c(cccc3c1)C(=O)N(CCCCCC(=O)NO)C2=O [KNH021] |
